{"source": "patent US9566282B2", "about": "“Methods for identifying and validating selective anti-cancer stem cell agents” (MCMASTER UNIVERSITY, priority 2011, dated 2017)", "data": [{"system": "v1O4 and H9 cells", "experiment": "p53 staining of v1O4 and H9 cells", "assay_type": "cell-based, human", "text": "Variant neoplastic stem cells (v1O4 cells) and normal H9 stem cells were fixed and stained for p53 expression following treatment with selective-activity compounds.", "values": [{"smiles": "CN1CCN(CCCN2c3ccccc3Sc3ccc(C(F)(F)F)cc32)CC1", "note": "[trifluoperazine]", "activation of the p53 stress response (% cells positive for p53)": "little or no activation of the p53 stress response"}, {"smiles": "CN1CCN(CCCN2c3ccccc3Sc3ccc(Cl)cc32)CC1", "note": "[prochlorperazine]", "activation of the p53 stress response (% cells positive for p53)": "little or no activation of the p53 stress response"}, {"smiles": "CN(C)CCCN1c2ccccc2Sc2ccc(C(F)(F)F)cc21", "note": "[triflupromazine]", "activation of the p53 stress response (% cells positive for p53)": "little or no activation of the p53 stress response"}, {"smiles": "OCCN1CCN(CCCN2c3ccccc3Sc3ccc(Cl)cc32)CC1", "note": "[perphenazine]", "activation of the p53 stress response (% cells positive for p53)": "little or no activation of the p53 stress response"}, {"smiles": "OCCN1CCN(CCCN2c3ccccc3Sc3ccc(C(F)(F)F)cc32)CC1", "note": "[fluphenazine]", "activation of the p53 stress response (% cells positive for p53)": "little or no activation of the p53 stress response"}]}]}
